Laboratory results as given in article PMC3271384 (Molecular Genetics and Metabolism, 2012).
Numbering of substitutions follows the chain as printed.

Assays:
Format in all cases: binding
[1] = target: T1, AGT-Ma (Homo sapiens, UniProt P21549, S187F); assay: intrinsic fluorescence
T1 sequence (P21549 1-392 S187F): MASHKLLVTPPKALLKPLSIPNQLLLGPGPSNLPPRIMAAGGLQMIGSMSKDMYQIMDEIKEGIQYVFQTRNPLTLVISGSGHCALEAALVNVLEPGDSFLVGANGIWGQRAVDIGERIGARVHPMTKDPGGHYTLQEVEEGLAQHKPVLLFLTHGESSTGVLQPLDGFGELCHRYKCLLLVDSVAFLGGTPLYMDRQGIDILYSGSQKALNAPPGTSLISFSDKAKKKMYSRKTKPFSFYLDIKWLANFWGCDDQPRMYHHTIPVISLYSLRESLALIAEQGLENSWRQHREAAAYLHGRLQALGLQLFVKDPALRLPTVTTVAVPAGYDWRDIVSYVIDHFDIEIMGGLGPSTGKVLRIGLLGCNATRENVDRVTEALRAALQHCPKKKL

[2] = target: T2, AGT-Ma (Homo sapiens, UniProt P21549, S158L); assay: CD signal at […] nm titration of apoenzyme
T2 sequence (P21549 1-392 S158L): T1 sequence (P21549 1-392 S187F) with S158L, F187S

[3] = target: T3, AGT-Mi (Homo sapiens, UniProt P21549, G350D/I340M/P11L); assay: quenching of intrinsic fluorescence of apoenzyme
T3 sequence (P21549 1-392 P11L/I340M/G350D): T1 sequence (P21549 1-392 S187F) with P11L, F187S, I340M, G350D

[4] = target: T4, AGT-Mi (Homo sapiens, UniProt P21549, G161S/I340M/P11L); assay: quenching of intrinsic fluorescence of apoenzyme
T4 sequence (P21549 1-392 P11L/G161S/I340M): T1 sequence (P21549 1-392 S187F) with P11L, G161S, F187S, I340M

[5] = target: T5, AGT-Ma (Homo sapiens, UniProt P21549, P319L); assay: quenching of intrinsic fluorescence of apoenzyme
T5 sequence (P21549 1-392 P319L): T1 sequence (P21549 1-392 S187F) with F187S, P319L

[6] = target: T6, AGT-Ma (Homo sapiens, UniProt P21549, D183N); assay: CD signal at […] nm titration of apoenzyme
T6 sequence (P21549 1-392 D183N): T1 sequence (P21549 1-392 S187F) with D183N, F187S

[7] = target: T7, AGT-Mi (Homo sapiens, UniProt P21549, G161C/I340M/P11L); assay: quenching of intrinsic fluorescence of apoenzyme
T7 sequence (P21549 1-392 P11L/G161C/I340M): T1 sequence (P21549 1-392 S187F) with P11L, G161C, F187S, I340M

Kd [1]: < 10 nM | Kd [2]: 272000 ± 47000 nM | Kd [3]: 31 ± 5 nM | Kd [4]: 460 ± 70 nM | Kd [5]: 190 ± 40 nM | Kd [6]: 2100 ± 100 nM | Kd [7]: 560 ± 90 nM
SMILES: Cc1ncc(COP(=O)(O)O)c(C=O)c1O [PLP]
